Test results from patent US20250320496A1, “MODULATION OF ABCB11 GENE TRANSCRIPTION USING ANTISENSE OLIGONUCLEOTIDES TARGETING REGULATORY RNAS” (CAMP4 Therapeutics Corporation, priority 2022, published 2025).
Strand notation (5' to 3'): a small letter for the sugar, then the base; units joined by * are phosphorothioate-linked, units joined directly phosphodiester-linked; [ ] holds rarer units or linkages, { } end groups; capitals alone tell only the bases. e = 2'-O-(2-methoxyethyl) (MOE); [5mC] = 5-methylcytosine

tested on: human ABCB11 mRNA; assay: ASO treatment of primary human hepatocytes (PHH), ABCB11 mRNA by RT-qPCR normalized to B2M; type: cell-based; settings: primary human hepatocytes, 5 μM ASO, normalized to untreated PHHs (UNT)
Protocol: Primary human hepatocytes (PHH) were thawed using Lonza Human Cryopreserved Hepatocyte Thawing Medium and plated in 96-well collagen-coated plates (5.5-6.0×10^4 cells per well). Four hours later, the media was replaced with sterile-filtered QualGro™ Hepatocyte Culture Medium (BioIVT) containing antibiotic supplement, 0.3 mg/ml Matrigel® matrix (Corning®), and ASO at the desired concentration (e.g., 1.25 μM, 2.5 μM, 5 μM, or 10 μM). After 72 hrs., cells were harvested by aspirating media, washing once with phosphate-buffered saline (PBS), and lysed with 150 μl of Buffer RLT lysis buffer (Qiagen®). Plates were frozen at-80° C. during cell lysis. After thawing, total RNA was isolated using the Qiagen RNEasy kit as instructed by manufacturer. cDNA (random-primed) was synthesized from 10 μl of RNA using the LifeTech High Capacity cDNA Reverse Transcription kit. 2 μl of cDNA was used for reverse transcription-quantitative PCR (RT-qPCR) analyses using standard Taqman” reagents from Applied Biosystems™ to measure ABCB11 and CYP7A1 gene expression. Gene expression data was normalized to the housekeeper gene, beta-2-microglobulin (B2M).
To assess the ability of ASOs targeting ABCB11 regRNAs to modulate the expression of human ABCB11, 195 ASOs targeting the human ABCB11 regRNAs were synthesized. These initial ASOs were screened in PHHs at 5 μM to determine their efficacy in increasing human ABCB11 mRNA using quantitative PCR. This initial screen identified 10 ASOs that induced increased expression of ABCB11 mRNA by more than 1.5-fold (as compared to untreated PHHs).

| Substance | ABCB11 mRNA FC (5 μM ASO vs. UNT) [fold change] |
| --- | --- |
| CO-4042 (antisense e[5mC]*eT*e[5mC]*eT*e[5mC]*eG*eT*eT*e[5mC]*e[5mC]*eA*eA*eG*eG*eT*eG*eA*eA*eT*e[5mC]) | 0.605 |
| CO-4043 (antisense eG*e[5mC]*e[5mC]*e[5mC]*eA*e[5mC]*eT*e[5mC]*eT*eG*e[5mC]*eT*e[5mC]*eA*eA*eT*eT*eT*eG*e[5mC]) | 1.934 |
| CO-4044 (antisense eG*eT*eT*eG*eG*eG*eA*eT*eA*eG*e[5mC]*e[5mC]*eT*eG*eA*eA*eT*eT*e[5mC]*e[5mC]) | 0.974 |
| CO-4045 (antisense eA*e[5mC]*eT*eT*eT*eT*e[5mC]*eA*e[5mC]*eA*eA*e[5mC]*eT*eA*e[5mC]*eA*eG*eG*e[5mC]*e[5mC]) | 0.815 |
| CO-4046 (antisense eG*eG*eG*eAeA*eA*eG*eT*eT*eT*eA*eA*eA*eGeGeT*eA*eT*eT*eT) | 1.035 |
| CO-4047 (antisense eG*e[5mC]*eA*eA*eT*e[5mC]*eT*eT*eT*eT*eA*eT*eA*eT*eT*eG*eA*eG*eG*eG) | 0.676 |
| CO-4048 (antisense eA*eG*e[5mC]*eA*eT*e[5mC]*eT*eG*eG*eA*eT*e[5mC]*e[5mC]*eT*eG*e[5mC]*eA*eA*e[5mC]*e[5mC]) | 1.448 |
| CO-4049 (antisense eG*eT*e[5mC]*eT*e[5mC]*e[5mC]*eA*e[5mC]*eA*eA*eA*eA*e[5mC]*eT*e[5mC]*eT*eA*eT*eA*eG) | 0.889 |
| CO-4050 (antisense e[5mC]*eA*eA*eA*eT*eG*eT*eT*e[5mC]*eT*eT*eT*eT*eA*eG*eG*eG*eT*eA*eT) | 0.968 |
| CO-4051 (antisense eG*eA*e[5mC]*eT*eT*eT*eT*eG*eA*eG*e[5mC]*eA*eA*eG*eG*e[5mC]*eT*eG*eT*eT) | 0.908 |
| CO-4052 (antisense e[5mC]*e[5mC]*eA*eG*eG*eG*eT*eG*e[5mC]*eA*eA*eG*eA*eG*eT*eT*eG*eT*e[5mC]*eT) | 1.054 |
| CO-4053 (antisense eG*eA*eG*e[5mC]*eT*eT*e[5mC]*eA*eT*e[5mC]*eT*eG*eG*eT*eG*eT*eG*eT*e[5mC]*e[5mC]) | 1.218 |
| CO-4054 (antisense e[5mC]*eG*eT*eT*e[5mC]*eA*eT*e[5mC]*eT*eT*eT*eG*e[5mC]*eT*eT*eA*eT*eA*e[5mC]*eA) | 1.269 |
| CO-4055 (antisense eT*eT*eG*eA*eA*e[5mC]*e[5mC]*eT*eT*eT*eA*eG*eA*eA*eA*eA*eT*e[5mC]*eG*eT) | 1.287 |
| CO-4056 (antisense eG*e[5mC]*eT*eT*eA*eT*eT*eT*eG*eA*e[5mC]*eT*e[5mC]*eA*eA*eG*eA*e[5mC]*e[5mC]*eT) | 1.115 |
| CO-4057 (antisense e[5mC]*eA*eG*e[5mC]*eA*e[5mC]*eA*eA*eA*eT*eA*eT*eA*eT*eT*eG*eG*eA*eG*eG) | 1.245 |
| CO-4058 (antisense eG*eA*eT*eT*e[5mC]*eA*e[5mC]*eA*eA*eG*eA*eA*eG*eG*eG*eA*eG*eA*eG*eG) | 1.134 |
| CO-4059 (antisense eG*eT*eA*eA*eG*e[5mC]*eT*e[5mC]*eA*eG*eG*e[5mC]*eAeA*eA*eG*eG*eA*eG*eA) | 1.186 |
| CO-4060 (antisense eG*eG*eA*eGeT*eGeA*eGeA*eG*eG*e[5mC]*eA*eT*eT*eT*eA*eG*eG*eG) | 1.117 |

| Substance | ABCB11 mRNA FC (5 μM ASO vs. UNT) [fold change] |
| --- | --- |
| CO-4061 (antisense eA*eT*eT*e[5mC]*eA*eT*eT*eG*e[5mC]*eT*eG*eA*eA*eG*eG*e[5mC]*eT*eG*eG*eA) | 1.233 |
| CO-4062 (antisense eG*eA*e[5mC]*e[5mC]*eA*eA*eT*eG*eT*eT*eG*e[5mC]*e[5mC]*eT*eA*eT*eT*eA*eT*eT) | 1.108 |
| CO-4063 (antisense eG*e[5mC]*eA*e[5mC]*e[5mC]*e[5mC]*eA*eA*e[5mC]*e[5mC]*eA*eA*eG*eT*e[5mC]*eT*eT*eG*eA*e[5mC]) | 1.457 |
| CO-4480 (antisense e[5mC]*e[5mC]*eT*eG*eA*eG*eA*eT*eT*eG*eA*eG*e[5mC]*eT*eA*eT*eA*e[5mC]*eT*eG) | 0.931 |
| CO-4481 (antisense e[5mC]*eA*eT*e[5mC]*eT*e[5mC]*eT*eG*eT*eG*eA*eA*eT*e[5mC]*eG*e[5mC]*eT*eA*eG*eT) | 1.18 |
| CO-4482 (antisense eT*eA*eA*e[5mC]*eT*eG*eG*eG*eA*eG*eT*eA*eT*eA*eG*eA*eG*eG*eA*e[5mC]) | 1.001 |
| CO-4483 (antisense eT*e[5mC]*eA*e[5mC]*eA*eA*eA*eT*eA*eG*eA*eT*eT*eG*eA*eG*eG*eG*eT*e[5mC]) | 1.041 |
| CO-4484 (antisense eG*e[5mC]*eT*eA*eA*eT*e[5mC]*e[5mC]*eA*eA*e[5mC]*e[5mC]*eA*e[5mC]*eT*eT*e[5mC]*eA*eA*e[5mC]) | 1.113 |
| CO-4485 (antisense eG*eT*e[5mC]*eA*eA*eG*eA*eT*e[5mC]*e[5mC]*e[5mC]*e[5mC]*eG*eA*eA*eG*eT*eT*eG*eA) | 1.194 |
| CO-4486 (antisense eG*eG*eA*e[5mC]*eT*eG*e[5mC]*eG*eT*eG*eA*e[5mC]*eT*e[5mC]*eA*eG*eG*eT*eT*eA) | 1.151 |
| CO-4487 (antisense eG*e[5mC]*eA*eA*eG*eG*eT*e[5mC]*e[5mC]*eA*eG*eG*eG*eT*eG*eT*eA*eT*eT*e[5mC]) | 1.052 |
| CO-4488 (antisense eA*eA*e[5mC]*eA*eT*eG*eT*e[5mC]*eA*eG*eA*e[5mC]*eA*eG*eT*eA*eG*eT*eT*e[5mC]) | 1.084 |
| CO-4489 (antisense e[5mC]*eA*e[5mC]*eA*eG*eA*eG*eT*eG*e[5mC]*e[5mC]*eA*eA*eG*eG*eA*eG*eT*eT*eA) | 1.083 |
| CO-4490 (antisense e[5mC]*eG*eA*eG*eA*eA*eA*eA*eT*eG*eA*eG*eG*eT*eA*e[5mC]*eA*eT*eG*eG) | 1.158 |
| CO-4491 (antisense eG*eA*eG*eG*eT*eT*eG*eA*e[5mC]*eA*eA*eA*eT*eA*eG*eG*eT*eG*eT*eG) | 1.101 |
| CO-4492 (antisense eG*eA*eT*eT*eT*eA*eA*eA*eG*eG*eA*e[5mC]*eT*eG*e[5mC]*eA*eT*eG*eG*e[5mC]) | 1.192 |
| CO-4493 (antisense eA*eT*eG*eG*eT*eG*eA*eG*eA*eG*eT*eG*eT*eG*eG*eT*eT*e[5mC]*eA*eA) | 1.178 |
| CO-4494 (antisense eG*e[5mC]*eA*eG*eG*eA*eT*eG*eA*eA*eG*eT*eT*eT*eA*e[5mC]*eA*eA*eG*eG) | 1.12 |
| CO-4495 (antisense eT*eG*eG*eT*eA*eT*e[5mC]*e[5mC]*eA*eT*eT*e[5mC]*eA*e[5mC]*eA*eA*eG*eG*eT*eG) | 1.07 |
